Test results from US20090215805A1, “4-Heteroaryl Pyrimidine Derivatives and use thereof as Protein Kinase Inhibitors” (Cyclacel Limited, priority 2005, published 2009).

Key:
[1] = biological target: CDK2/E (Homo sapiens, UniProt P24941); experiment: CDK2/E in vitro kinase assay; format: biochemical
Protocol: (§1) The compounds of the invention above were investigated for their ability to inhibit the enzymatic activity of various protein kinases. This was achieved by measurement of incorporation of radioactive phosphate from ATP into appropriate polypeptide substrates. Recombinant protein kinases and kinase complexes were produced or obtained commercially. Assays were performed using 96-well plates and appropriate assay buffers (typically 25 mM β-glycerophosphate, 20 mM MOPS, 5 mM EGTA, 1 mM DTT, 1 mM […], pH 7.4), into which were added 2-4 μg of active enzyme with appropriate substrates. The reactions were initiated by addition of Mg/ATP mix (15 mM MgCl2+100 μM ATP with 30-50 kBq per well of [γ-^32P]-ATP) and mixtures incubated as required at 30° C. Reactions were stopped on ice, followed by filtration through p81 filterplates or GF/C filterplates (Whatman Polyfiltronics, Kent, UK). After washing 3 times with 75 mM aq orthophosphoric acid, plates were dried, scintillant added and incorporated radioactivity measured in a scintillation counter (TopCount, Packard Instruments, Pangbourne, Berks, UK). Compounds for kinase assay were made up as 10 mM stocks in DMSO and diluted into 10% DMSO in assay buffer. Data was analysed using curve-fitting software (GraphPad Prism version 3.00 for Windows, GraphPad Software, San Diego Calif. USA) to determine IC50 values (concentration of test compound which inhibits kinase activity by 50%).

[2] = test system: Glycogen synthase activation in mouse adipocytes (3T3-L1); experiment: Glycogen synthase activation in mouse adipocytes (3T3-L1); format: cell-based; conditions: 1.5 h; 3T3-L1 mouse adipocytes, 90 minutes treatment
Protocol: 3T3-L1 mouse pre-adipocytes were grown in DMEM supplemented with 10% FCS and pen/strep until fully confluent. Cell differentiation was initiated by the addition of 0.5 mM IBMX (2-isobutyl-1-methylxanthine), 0.25 μM Dexamethasone and 1 μg/ml insulin into the growth media. The differentiation media was replaced after 4 days and 7 days after the initiation of differentiation the cells were grown for additional 3 days in DMEM, 10% FCS and pen/strep.
(§2) HEK293 cells, mouse adipocytes or rat myotubes were treated in 10 cm Petri dishes with different concentrations of GSK3 inhibitors for 90 minutes. At the end of the treatment period the cells were washed and scraped in ice cold PBS buffer supplemented with 20 mM NaF. The cells were pelleted by centrifugation and lysed in 300 μl buffer-50 mM HEPES pH 7.5, 10 mM EDTA, 100 mM NaF, 5 mM DTT, protease inhibitor cocktail (Sigma). After incubation for 30 min on ice the samples were cleared by centrifugation. The activity of glycogen synthase was determined in the soluble fraction at two different concentrations of […]-low (0.1 mM) and high (10 mM). The reaction was carried out for 30 min in a buffer—50 mM Tris pH 7.8, 20 mM EDTA, 25 mM NaF, S mM DTT. The reaction mixture (total volume of 90 μl) consisted as well of 1% glycogen, 0.3 mM UDP-glucose and 0.06 μCi ^14C-UDP-glucose. Reaction was stopped by transfer of 70 μl to a GFC 96-well filter plate, containing 140 μl 100% ethanol an the glycogen was allowed to precipitate for 1 h at 4° C. The wells were washed 2 times with 200 μl 66% ethanol and than let to dry. Subsequently, 100 μl of scintillation liquid were added, and plates were sealed and counted in a Packard Topcounter. Glycogen synthase activation was calculated as the ratio between the incorporation of labelled ^14C-UDP-glucose in glycogen at low and high concentration of […] (fractional velocity).

[3] = test system: Glycogen synthase activation in rat myotubes (L6.G8.C5); experiment: Glycogen synthase activation in rat myotubes (L6.G8.C5); format: cell-based; conditions: Myotube, 1.5 h, 90 minutes treatment
Protocol: Rat myotubes were differentiated from L6.G8.C5 myoblasts, which were grown in DMEM, 10% FCS and pen/strep until confluent. The media was then removed, cells washed with PBS and differentiation media containing minimal essential media eagles (alpha modified) supplemented with 2% FCS and pen/strep. The cells were cultured for 3-4 days until >90% of cells have formed multinucleated myotubes. The differentiated cells were then used for determination of glycogen synthase activation after treatment with GSK3 inhibitors.
as §2

[4] = biological target: GSK3 (GSK-3β) (Oryctolagus cuniculus, UniProt A0A5F9DUX8); experiment: GSK-3 kinase assay; format: biochemical, rabbit; conditions: in vitro kinase assay
GSK3 (GSK-3β), sequence (A0A5F9DUX8 entry or part of it): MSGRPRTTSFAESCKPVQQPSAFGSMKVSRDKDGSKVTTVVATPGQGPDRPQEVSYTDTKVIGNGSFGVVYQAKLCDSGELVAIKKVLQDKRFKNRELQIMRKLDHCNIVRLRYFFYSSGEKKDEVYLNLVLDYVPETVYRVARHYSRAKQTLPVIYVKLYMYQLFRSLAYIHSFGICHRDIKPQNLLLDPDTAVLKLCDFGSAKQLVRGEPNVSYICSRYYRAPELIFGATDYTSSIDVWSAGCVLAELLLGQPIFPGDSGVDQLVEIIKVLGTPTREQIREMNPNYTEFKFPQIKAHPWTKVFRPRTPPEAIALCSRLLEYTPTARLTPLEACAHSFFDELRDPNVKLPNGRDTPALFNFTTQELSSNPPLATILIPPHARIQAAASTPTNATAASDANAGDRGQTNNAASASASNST
Protocol: GSK-3 was obtained from New England Biolabs (UK) Ltd., Hitchin, Herts. The recombinant enzyme was isolated from a strain of E. coli that carries a clone expressing GSK-3β derived from a rabbit skeletal muscle cDNA library [Wang, Q. M.; Fiol, C. J.; DePaoli-Roach, A. A.; Roach, P. J. J. Biol. Chem., 1994, 269, 14566]. Inhibition of GSK-3 function was assessed by measurement of phosphorylation of CREB phosphopeptide KRREILSRRPphosphoSYR in the presence of test compounds. Using a 96-well assay format, GSK3 (7.5 U) was incubated for 30 min at 30° C. in a total volume of 25 μL in 20 mM MOPS pH 7.2, 25 mM β-glycerophosphate, 5 mM EGTA, 1 mM DTT, 1 mM […], 40 μM CREB peptide, 15 mM MgCl2 and 100 μM ATP (containing 0.25 μCi [γ-^32P]-ATP) in the presence of varying concentrations of test compound. The samples were transferred to 96-well p81 filter plates (Whatman Polyfiltronics, Kent, UK), and the plates were washed 4 times with 200 μL/well of 75 mM aq orthophosphoric acid. Scintillation liquid (50 μL) was added to each well, and incorporated radioactivity for each sample was determined using a scintillation counter (TopCount, Packard Instruments, Pangboume, Berks, UK).

[5] = biological target: DM Aur A (Dm AK-A) (Drosophila melanogaster, UniProt Q9VGF9); experiment: Dm aurora A kinase assay (DM Aur A / Dm AK-A); format: biochemical; conditions: for Ki: in vitro kinase assay; for IC50: values without asterisk (DM aurora A)
DM Aur A (Dm AK-A), sequence (Q9VGF9 entry or part of it): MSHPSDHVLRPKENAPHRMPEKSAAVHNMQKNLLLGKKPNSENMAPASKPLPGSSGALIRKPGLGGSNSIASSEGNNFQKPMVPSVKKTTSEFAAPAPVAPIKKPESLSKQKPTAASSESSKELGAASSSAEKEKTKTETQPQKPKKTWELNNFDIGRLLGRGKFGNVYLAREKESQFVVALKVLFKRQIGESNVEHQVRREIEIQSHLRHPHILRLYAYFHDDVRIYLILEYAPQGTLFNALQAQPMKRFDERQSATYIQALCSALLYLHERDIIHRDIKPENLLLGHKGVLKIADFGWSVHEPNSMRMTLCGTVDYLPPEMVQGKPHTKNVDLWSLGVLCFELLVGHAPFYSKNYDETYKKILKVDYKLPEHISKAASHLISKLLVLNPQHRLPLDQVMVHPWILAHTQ
Protocol: as §1

[6] = test system: PEPCK gene expression in HEPG2 cells; experiment: PEPCK gene expression in HEPG2 cells - QPCR assay; format: cell-based; conditions: HEPG2, Dex/cAMP +, percentage of the dexametasone-induced stimulation
Protocol: PEPCK gene expression was studied in HEPG2 (hepatocarcinoma) cells, seeded in 6-well plate at […] cells per well. The cells were serum starved for 20 hours before treatment with dexamethasone/cAMP (stimulator of PEPCK gene expression) in the presence or absence of insulin or GSK3 inhibitors. After 3 hours treatment the cells were harvested, lysed and RNA extracted using mini RNeasy spin column (Quiagen). The primer set COD2063/COD2064 (350 bp) was used for PEPCK gene. The one step RT-PCR was carried out using the Lightcycler-RNA Master SYBR Green 1 Kit. The qPCR analysis calculates the number of the PCR cycles required for the PCR product amplification to reach logarithmic phase. QPCR for a housekeeping gene—28S—was used for normalisation. PEPCK is a key enzyme in gluconeogenesis in the liver and it is known be negatively regulated by insulin via inhibition of GSK3. The effect of GSK3 inhibitors on PEPCK gene expression was studied in HEPG2 (hepatocarcinoma) cells treated with dexametasone/cAMP (a positive regulator of PEPCK gene expression) in the presence or absence of insulin or GSK3 inhibitors.

[7] = test system: Glycogen synthase activation in HEK293 cells; experiment: Glycogen synthase activation in HEK293 cells; format: cell-based; conditions: Homo sapiens, 1.5 h, 90 minutes treatment
Protocol: as §2

Row | Compound | Ki [1] | EC50 [2] | EC50 [3] | Ki [4] | Ki [5] | IC50 [5] | % PEPCK activity ([6]; concentration 1 uM) | % PEPCK activity ([6]; concentration 10 uM) | EC50 [7] | % PEPCK activity ([6]; concentration 0.1 uM)
1 | COc1ccc(Nc2nccc(-c3c(C)[nH]c(C#N)c3C)n2)cn1 [Compound 28] | 188 nM | 7900 nM | 9000 nM | 5 nM | 177 nM | 453 nM | 48.4 ± 7.3% | 11.7 ± 1.3% | 6600 nM | –
2 | Cc1[nH]c(C#N)c(C)c1-c1ccnc(Nc2ccc(Cl)nc2)n1 [Compound 30] | 197 nM | 4300 nM | 2300 nM | 3 nM | 681 nM | 861 nM | 22.8 ± 12.1% | 16.2 ± 3.8% | 2200 nM | –
3 | Insulin: insulin, comparator known to negatively regulate PEPCK via inhibition of GSK3 | – | – | – | – | – | – | – | – | – | 67.5 ± 9.0%
4 | Cc1[nH]c(C#N)c(C)c1-c1ccnc(Nc2ccc(N(C)C)c([N+](=O)[O-])c2)n1 [Compound 18] | 119 nM | 4120 nM | – | 5 nM | – | – | – | – | 1500 nM | –
5 | CCNS(=O)(=O)c1cccc(Nc2nccc(-c3c(C)[nH]c(C#N)c3C)n2)c1 [Compound 32] | 377 nM | 2100 nM | 5000 nM | 3 nM | 161 nM | 413 nM | – | – | 4100 nM | –
6 | Cc1[nH]c([N+](=O)[O-])c(C)c1-c1ccnc(Nc2ccc(N(C)C)c([N+](=O)[O-])c2)n1 [Compound 19] | 41 nM | 5600 nM | 6300 nM | 4 nM | – | – | 72.9 ± 9.06% | 45.4 ± 1.9% | 700 nM | –
